The source of these data is paper PMC9406419, “OATD-02 Validates the Benefits of Pharmacological Inhibition of Arginase 1 and 2 in Cancer” (Cancers, 2022).

For one data set, the system named is K562 tumours. Briefly: K562 xenograft model in T and NK cell-deficient Fox Chase SCID Beige mice. The settings on record: 50 mg/kg PO BID from day 7, day 19. It is filed as in vivo, mouse. The protocol: (§1) CT26 and K562 in vivo experiments were conducted at Molecure SA. All experimental procedures were approved by the 1st Local Ethics Committee in Warsaw (Poland). For the syngeneic CT26 model, 7–8-week old BALB/c females (n = 9–18 per group, BALB/cAnNCrl, Charles River Laboratories) were injected subcutaneously in the right flank with 5 × 10^5 CT26 cells. […] Anti-PD-L1 antibody (InVivoPlus anti-mouse PD-L1, clone 10F.9G2, BioXCell, lot 615416D1) was injected intraperitoneally at 2.5 mg/kg on days: 8, 10, 12, 14 and 16 post tumour cells inoculation. Control groups received vehicle (saline) or isotype antibody (InVivoPlus rat IgG2b, anti-KLH, BioXCell, lot 629816D1). For the xenograft K562 model, 7–8 week-old athymic nude mice (n = 8–11 per group, Crl:NU(NCr)-Foxn1^nu, Charles River Laboratories) or NK cell-deficient Fox Chase SCID Beige mice (n = 10–12 per group, CB17.Cg-Prkdc^scidLyst^bg-J/Crl, Charles River Laboratories) were injected subcutaneously in the right flank with 1 × 10^7 K562 cells. […] Tumour volume measured by a digital calliper (width × length × depth × π/6) was recorded three times per week. Animals were euthanized when tumours were necrotized or volume exceeded 2000 mm^3. Renca in vivo efficacy study was performed at Crown Biosciences Inc. (Taicang, China). […] Tumour volumes (length × width^2 × 0.5) were measured twice per week. […]

In the next data set the test system is CT26 tumours. The data set can be described thus: Syngeneic CT26 model, combination with epacadostat and anti-PD-L1 antibody. It is filed as in vivo, mouse. Conditions: suboptimal doses: OATD-02 50 mg/kg PO BID; epacadostat 30 mg/kg PO BID; anti-PD-L1 2.5 mg/kg IP days 8, 10, 12, 14, 16. Here is the method:
as §1

A short description of data set [1]: Tolerability in animal models. The data set is classed as in vivo.

For the compound `CN(C)C[C@@H]1CC[C@@H](CCB(O)O)C[C@]1(N)C(=O)O` [OATD-02], in the data set with K562 tumours, the “final TGI, K562 tumor volumes, Fox Chase SCID Beige mice” value worked out at 47%. Besides, in the data set on CT26 tumours, the “TGI, CT26 tumor growth inhibition - day 24” value is listed as 33%. The safety and tolerability result in data set [1] was “safe and well tolerated”.
